From patent publication US10307404B1, “Ocular formulations for drug-delivery to the posterior segment of the eye” (priority 2013, dated 2019)
Read-outs that look alike come from different tables or passages of the source.

Assay: PK of topical ocular sodium phosphate-based Gel Drop, concentrations 1 hour after last dose
Type: in vivo, Dutch-belted rabbits
Conditions: Dutch-belted, rabbit
Source text: The Gel Drop of Compound-I was applied to eyes of Dutch-belted rabbits.

In the case of `Cl.NC(=O)c1c(OCc2c(F)cc(Br)cc2F)nsc1NC(=O)NCCCCN1CCCC1` [Compound-I, 3-[(4-bromo-2,6-difluorophenyl)methoxy]-5-[[[[4-(1-pyrrolidinyl)butyl]amino]carbonyl]amino]-4-isothiazolecarboxamide hydrochloride], the concentration at 1 h (choroid, 2 mg/ml, pH 6.1, 2 mg/ml pH 6.1 Phos […] Osmo 22, 3x/day 5 days, read-out: MEAN [choroid]) is reported as 356 nM, the concentration at 1 h (choroid, 2 mg/ml, pH 6.1, 2 mg/ml pH 6.1 Phos […] Osmo 34, 3x/day 4 days, read-out: MEAN [choroid]) is reported as 466 nM and the concentration at 1 h (choroid, 4 mg/ml, pH 6, 4 mg/ml pH 6.0 Phos 0.2% BAK 0.005% Gly 2%, 3x/day 5 days, read-out: MEAN [choroid]) is reported as 596 nM. For the same molecule, the concentration at 1 h (choroid, 5 mg/ml, pH 6, 5 mg/ml pH 6 Phos 0.2% BAK 0.005% Gly 2% Osmo 273, 3x/day 5 days, read-out: MEAN [choroid]) was 1160 nM, the concentration at 1 h (choroid, 5 mg/ml, pH 6, 5 mg/ml pH 6 Phos 0.2% BAK 0.005% Gly 2% PS80 1% Polox 0.2% Osmo 288, 3x/day 5 days, read-out: MEAN [choroid]) was 612 nM and the concentration at 1 h (choroid, 6 mg/ml, pH 5.9, 6 mg/ml pH 5.9 Phos 0.05% BAK 0.005% Gly 2% PS80 1% Tylox 0.1% Polox 0.2% Osmo 270, 3x/day 4 days, read-out: MEAN [choroid]) was 22.4 nM. The concentration at 1 h (choroid, 6 mg/ml, pH 5.9, 6 mg/ml pH 5.9 Phos […] Osmo 80, 3x/day 4 days, read-out: MEAN [choroid]) was 823 nM, the concentration at 1 h (choroid, 6 mg/ml, pH 6.1, 6 mg/ml pH 6.1 Phos 0.05% BAK 0.005% Gly 2% PS80 1% Tylox 0.1% Osmo 248, 3x/day 5 days, read-out: MEAN [choroid]) was 779 nM and the concentration at 1 h (plasma, 1 mg/ml, pH 6, 1 mg/ml pH 6.0 Phos 0.05% BAK 0.005% Gly 2% PS80 0.01% Tylox 0.2%, 3x/day 5 days, read-out: [plasma]) was 3.49 nM. It also gave a concentration at 1 h (plasma, 1 mg/ml, pH 6, 1 mg/ml pH 6 Phos 0.05% BAK 0.005% Gly 2%, 3x/day 5 days, read-out: [plasma]) of 4.45 nM, a concentration at 1 h (plasma, 1 mg/ml, pH 6, 1 mg/ml pH 6.0 Phos 0.2% BAK 0.005% Gly 2% PS80 1% Tylox 0.2%, 3x/day 5 days, read-out: [plasma]) of 2.89 nM and a concentration at 1 h (plasma, 1 mg/ml, pH 6, 1 mg/ml pH 6.0 Phos 0.2% BAK 0.005% Gly 2%, 3x/day 5 days, read-out: [plasma]) of 3.97 nM. It also gave a concentration at 1 h (plasma, 2 mg/ml, pH 6, 2 mg/ml pH 6 BAK 0.005% Gly 2% Osmo 232, 3x/day 5 days, read-out: [plasma]) of 5.41 nM, a concentration at 1 h (plasma, 2 mg/ml, pH 6, 2 mg/ml pH 6.0 Phos 0.02% BAK 0.005% Gly 2% PS80 1% Tylox 0.2%, 3x/day 5 days, read-out: [plasma]) of 4.46 nM and a concentration at 1 h (plasma, 2 mg/ml, pH 6, 2 mg/ml pH 6 Phos 0.05% BAK 0.005% Gly 2% Osmo 244, 3x/day 5 days, read-out: [plasma]) of 5.92 nM. The concentration at 1 h (plasma, 2 mg/ml, pH 6, 2 mg/ml pH 6 Phos 0.05% BAK 0.005% Gly 2% PS80 1% Osmo 261, 3x/day 5 days, read-out: [plasma]) was 4.15 nM, the concentration at 1 h (plasma, 2 mg/ml, pH 6, 2 mg/ml pH 6.0 Phos 0.05% BAK 0.005% Gly 2% PS80 1% Tylox 0.2%, 3x/day 5 days, read-out: [plasma]) was 4.36 nM and the concentration at 1 h (plasma, 2 mg/ml, pH 6, 2 mg/ml pH 6.0 Phos 0.05% BAK 0.005% Gly 2%, 3x/day 5 days, read-out: [plasma]) was 5.79 nM. The concentration at 1 h (plasma, 2 mg/ml, pH 6, 2 mg/ml pH 6.0 Phos 0.1% BAK 0.005% Gly 2%, 3x/day 5 days, read-out: [plasma]) was 5.71 nM, the concentration at 1 h (plasma, 2 mg/ml, pH 6, 2 mg/ml pH 6 Phos 0.2% BAK 0.005% Gly 2% Osmo 257, 3x/day 5 days, read-out: [plasma]) was 5.26 nM and the concentration at 1 h (plasma, 2 mg/ml, pH 6, 2 mg/ml pH 6 Phos 0.2% BAK 0.005% Gly 2% PS80 1% Osmo 281, 3x/day 5 days, read-out: [plasma]) was 4.94 nM. The concentration at 1 h (plasma, 2 mg/ml, pH 6, 2 mg/ml pH 6.0 Phos 0.2% BAK 0.005% Gly 2%, 3x/day 5 days, read-out: [plasma]) was 4.47 nM, the concentration at 1 h (plasma, 2 mg/ml, pH 6.1, 2 mg/ml pH 6.1 Phos […] Osmo 34, 3x/day 4 days, read-out: [plasma]) was 4.81 nM and the concentration at 1 h (plasma, 4 mg/ml, pH 6, 4 mg/ml pH 6.0 Phos 0.2% BAK 0.005% Gly 2%, 3x/day 5 days, read-out: [plasma]) was 5.84 nM. The concentration at 1 h (plasma, 4 mg/ml, pH 6, 4 mg/ml pH 6.0 Phos 2% BAK 0.005% Gly 2% PS80 1% Tylox 0.2%, 3x/day 5 days, read-out: [plasma]) was 8.06 nM, the concentration at 1 h (plasma, 6 mg/ml, pH 5.9, 6 mg/ml pH 5.9 Phos 0.05% BAK 0.005% Gly 2% PS80 1% Tylox 0.1% Polox 0.2% Osmo 270, 3x/day 4 days, read-out: [plasma]) was 15.6 nM and the concentration at 1 h (plasma, 6 mg/ml, pH 5.9, 6 mg/ml pH 5.9 Phos 0.1% BAK 0.005% Gly 2% Polox 0.2% Osmo 257, 3x/day 4 days, read-out: [plasma]) was 8.43 nM. For the same molecule, the concentration at 1 h (retina, 1 mg/ml, pH 6, 1 mg/ml pH 6.0 Phos 0.05% BAK 0.005% Gly 2% PS80 0.01% Tylox 0.2%, 3x/day 5 days, read-out: Mean [retina]) was 46.8 nM, the concentration at 1 h (retina, 1 mg/ml, pH 6, 1 mg/ml pH 6.0 Phos 0.2% BAK 0.005% Gly 2% PS80 1% Tylox 0.2%, 3x/day 5 days, read-out: Mean [retina]) was 32.7 nM and the concentration at 1 h (retina, 1 mg/ml, pH 6, 1 mg/ml pH 6.0 Phos 0.2% BAK 0.005% Gly 2%, 3x/day 5 days, read-out: Mean [retina]) was 90.8 nM. The concentration at 1 h (retina, 2 mg/ml, pH 6, 2 mg/ml pH 6.0 Phos 0.02% BAK 0.005% Gly 2% PS80 1% Tylox 0.2%, 3x/day 5 days, read-out: Mean [retina]) was 92.9 nM, the concentration at 1 h (retina, 2 mg/ml, pH 6, 2 mg/ml pH 6 Phos 0.05% BAK 0.005% Gly 2% Osmo 244, 3x/day 5 days, read-out: Mean [retina]) was 121 nM and the concentration at 1 h (retina, 2 mg/ml, pH 6, 2 mg/ml pH 6 Phos 0.05% BAK 0.005% Gly 2% PS80 1% Osmo 261, 3x/day 5 days, read-out: Mean [retina]) was 126 nM. It also gave a concentration at 1 h (retina, 2 mg/ml, pH 6, 2 mg/ml pH 6.0 Phos 0.05% BAK 0.005% Gly 2% PS80 1% Tylox 0.2%, 3x/day 5 days, read-out: Mean [retina]) of 85.7 nM, a concentration at 1 h (retina, 2 mg/ml, pH 6, 2 mg/ml pH 6.0 Phos 0.05% BAK 0.005% Gly 2%, 3x/day 5 days, read-out: Mean [retina]) of 113 nM and a concentration at 1 h (retina, 2 mg/ml, pH 6, 2 mg/ml pH 6.0 Phos 0.1% BAK 0.005% Gly 2%, 3x/day 5 days, read-out: Mean [retina]) of 42.9 nM. For the same molecule, the concentration at 1 h (retina, 2 mg/ml, pH 6, 2 mg/ml pH 6.0 Phos 0.2% BAK 0.005% Gly 2%, 3x/day 5 days, read-out: Mean [retina]) was 34.8 nM, the concentration at 1 h (retina, 4 mg/ml, pH 6, 4 mg/ml pH 6.0 Phos 0.2% BAK 0.005% Gly 2%, 3x/day 5 days, read-out: Mean [retina]) was 68.3 nM and the concentration at 1 h (retina, 4 mg/ml, pH 6, 4 mg/ml pH 6.0 Phos 2% BAK 0.005% Gly 2% PS80 1% Tylox 0.2%, 3x/day 5 days, read-out: Mean [retina]) was 97.6 nM.
